Data taken from US20120214710A1, “METHOD OF PREDICTING RESPONSE TO THALIDOMIDE IN MULTIPLE MYELOMA PATIENTS” (Dublin City University, priority 2009, published 2012).

Tests used:
Multiple Myeloma = assay: Day-100 re-staging (IMWG uniform response criteria) of newly diagnosed MM patients on thalidomide-based regimens; type: in vivo, human
Experimental: Serum samples from 51 consecutive newly diagnosed MM patients who were having initial treatment with thalidomide-based regimens were analyzed. Samples were obtained at diagnosis and prior to commencement of therapy. The samples were collected according to standard phlebotomy procedures from consented patients. Ethical consent was granted from the Mater Misericordiae University Hospital, Dublin, Ireland ethics committee. 10 ml of blood sample was collected into additive free blood tubes and was allowed to clot for 30 minutes to 1 hour at room temperature. Samples were coded and transported on ice to the laboratory. The serum was denuded by pipette from the clot and place into a clean tube. The tubes were centrifuged at 400 relative centrifugal force (rcf) for 30 minutes at 4° C. Serum was aliquoted in the cryovial tubes, labeled and stored at −80° C. until time of analysis. The time from sample procurement to storage at −80° C. was less than 3 hours. Each serum sample underwent no more than 3 freeze/thaw cycles prior to analysis.
The mean age of the patient group was 68 SD+/−6.95 years (range 52-81 years); 27 were male and 24 female. Based on Day-100 re-staging investigations and using the International Myeloma Working Group (IMWG) uniform response criteria (Rajkumar S V, Buadi F. Multiple myeloma: new staging systems for diagnosis, prognosis and response evaluation. Best Pract Res Clin Haematol. 2007; 20:665-680; Durie B G, Harousseau J L, Miguel J S, et al. International uniform response criteria for multiple myeloma. Leukemia. 2006;20:1467-1473) for MM, 29 responders and 22 non-responders to thalidomide-based therapy were identified. The mean age was 66 SD+/−6.80 years (range, 52-81 years) for responders and 70 SD+/−6.69 years (range, 57-79 years) for non-responders. Based on the ISS classification (Hotta T. [Classification, staging and prognostic indices for multiple myeloma]. Nippon Rinsho. 2007; 65:2161-2166), 6 responding patients had stage I, 15 had stage II and 8 had stage III disease. […] had stage I, 11 had stage II and 9 had stage III disease. In the responders group, 24 patients were treated with thalidomide and dexamethasone (TD), 3 with thalidomide, cyclophosphamide and dexamethasone (CTD) and 2 with melphalan, prednisone and thalidomide (MPT). In the non-responder group, 17 patients received TD, 4 received CTD and 1 patient received MPT. Median follow-up was 13 months (range, 6-21 months). In the responder group, 9 patients achieved complete response (CR) and 20 achieved very good partial response (VGPR). Five non-responders had Stable disease (SD) and the remaining 17 had Progressive disease (PD) (Table I).

[1] = use in myeloma; cited from earlier work
[2] = 51 newly diagnosed MM patients, Day-100 re-staging, IMWG criteria

O=C1CCC(N2C(=O)c3ccccc3C2=O)C(=O)N1 (stereo not drawn) [thalidomide, 2-(2,6-dioxopiperidin-3-yl)-1H-isoindole-1,3(2H)-dione]
number of non-responders (SD or PD) (Multiple Myeloma; [2]): 22 patients
number of responders (CR or VGPR) (Multiple Myeloma; [2]): 29 patients
patients with Progressive disease (PD) (Multiple Myeloma; non-responder group, n=22): 17 patients
patients achieving complete response (CR) (Multiple Myeloma; responder group, n=29): 9 patients
patients achieving very good partial response (VGPR) (Multiple Myeloma; responder group, n=29): 20 patients
serious side effects [1]: thrombo-embolic disease and peripheral neuropathy
